Test results as given in patent US8247211B2, “Glycopeptide antibiotics” (American Cyanamid Company, priority 2001, dated 2012).
Values after ≈ are worked out from the molar mass of the structure shown. One block for each molecule: values may come before it.

How the values were obtained:
Test in all cases: In vitro antibacterial evaluation: minimum inhibitory concentration (MIC), broth dilution method
Format in all cases: cell-based
Staphylococcus sp. = conditions: for MIC Staphylococcus aureus (ATCC 29213): strain ATCC 29213; for MIC Staphylococcus aureus (GC 1131): strain GC 1131; for MIC Staphylococcus aureus (GC 3051): strain GC 3051; for MIC Staphylococcus aureus (GC 3053): strain GC 3053; for MIC Staphylococcus aureus (GC 4541): strain GC 4541; for MIC Staphylococcus aureus (GC 4542): strain GC 4542; for MIC Staphylococcus aureus-SMITH (GC 4543): strain GC 4543; for MIC Staphylococcus aureus (GC 4544): strain GC 4544; for MIC Staphylococcus aureus (GC 4545): strain GC 4545; for MIC Staphylococcus haemolyticus (GC 4546): strain GC 4546; for MIC Coagulase Negative Staphylococcus (GC 4547): strain GC 4547; for MIC Coagulase Negative Staphylococcus (GC 4548): strain GC 4548; for MIC Coagulase Negative Staphylococcus (GC 4549): strain GC 4549; for MIC Coagulase Negative Staphylococcus (GC 4551): strain GC 4551
In short: (§1)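 MIC read as lowest drug level preventing visible growth. Organisms at 5×10^5 CFU/mL were exposed to a 64-0.06 μg/mL dilution series in Muller-Hinton II […] following NCCLS broth dilution standard M7-A2.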

Streptococcus sp. = conditions: 18 hours at 35° C.
In short: as §1

Enterococcus sp. = conditions: 18 hours at 35° C.
In short: as §1

Escherichia coli = conditions: 18 hours at 35° C.
In short: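 NCCLS M7-A2 broth dilution with Mueller-Hinton II, testing 64-0.06 μg/mL antibiotic against 5×10^5 CFU/mL inocula. Test strains include recent methicillin-, penicillin- or vancomycin-resistant clinical isolates. MIC is the lowest concentration preventing growth.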

[1] = Streptococcus agalactiae (GC 4564)
[2] = Streptococcus pneumoniae (ATCC 6301)
[3] = Streptococcus pneumoniae (GC 1894)
[4] = Streptococcus pneumoniae (GC 4565)
[5] = Streptococcus pyogenes (GC 4563)
[6] = broth dilution, inoculum 5×10^5 CFU/mL
[7] = Enterococcus faecalis (ATCC 29212)
[8] = Enterococcus faecalis (GC 2242)
[9] = Enterococcus faecalis (GC 2691)
[10] = Enterococcus faecalis (GC 3059)
[11] = Enterococcus faecalis (GC 4552)
[12] = Enterococcus faecalis (GC 4553)
[13] = Enterococcus faecalis (GC 4554)
[14] = Enterococcus faecalis (GC 6189)

MIC Staphylococcus aureus (ATCC 29213) (Staphylococcus sp.): >64 µg/mL
MIC Staphylococcus aureus (GC 1131) (Staphylococcus sp.): >64 µg/mL
MIC Staphylococcus aureus (GC 3051) (Staphylococcus sp.): >64 µg/mL
MIC Staphylococcus aureus (GC 3053) (Staphylococcus sp.): >64 µg/mL
MIC Staphylococcus aureus (GC 4541) (Staphylococcus sp.): >64 µg/mL
MIC Staphylococcus aureus (GC 4542) (Staphylococcus sp.): >64 µg/mL
MIC Staphylococcus aureus-SMITH (GC 4543) (Staphylococcus sp.): >64 µg/mL
MIC Staphylococcus aureus (GC 4544) (Staphylococcus sp.): >64 µg/mL
MIC Staphylococcus aureus (GC 4545) (Staphylococcus sp.): >64 µg/mL
MIC Coagulase Negative Staphylococcus (GC 4547) (Staphylococcus sp.): >64 µg/mL
MIC Coagulase Negative Staphylococcus (GC 4548) (Staphylococcus sp.): >64 µg/mL
MIC Coagulase Negative Staphylococcus (GC 4549) (Staphylococcus sp.): >64 µg/mL
MIC Coagulase Negative Staphylococcus (GC 4551) (Staphylococcus sp.): >64 µg/mL
MIC Streptococcus agalactiae (GC 4564) (Streptococcus sp.; [1]): >64 µg/mL
MIC Streptococcus pneumoniae (ATCC 6301) (Streptococcus sp.; [2]): 64 µg/mL (≈ 44.9 µM)
MIC Streptococcus pneumoniae (GC 1894) (Streptococcus sp.; [3]): 32 µg/mL (≈ 22.4 µM)
MIC Streptococcus pneumoniae (GC 4565) (Streptococcus sp.; [4]): 64 µg/mL (≈ 44.9 µM)
MIC Streptococcus pyogenes (GC 4563) (Streptococcus sp.; [5]): 64 µg/mL (≈ 44.9 µM)
MIC Streptococcus agalactiae (GC 4564) (Streptococcus sp.; [6]): >64 µg/mL
MIC Streptococcus pneumoniae (ATCC 6301) (Streptococcus sp.; [6]): 64 µg/mL (≈ 44.9 µM)
MIC Streptococcus pneumoniae (GC 1894) (Streptococcus sp.; [6]): 32 µg/mL (≈ 22.4 µM)
MIC Streptococcus pneumoniae (GC 4565) (Streptococcus sp.; [6]): 64 µg/mL (≈ 44.9 µM)
MIC Streptococcus pyogenes (GC 4563) (Streptococcus sp.; [6]): 64 µg/mL (≈ 44.9 µM)
MIC Enterococcus avium (GC 4558) (Enterococcus sp.; Enterococcus avium (GC 4558)): 64 µg/mL (≈ 44.9 µM)
MIC Enterococcus faecalis (ATCC 29212) (Enterococcus sp.; [7]): >64 µg/mL
MIC Enterococcus faecalis (GC 2242) (Enterococcus sp.; [8]): >64 µg/mL
MIC Enterococcus faecalis (GC 2691) (Enterococcus sp.; [9]): >64 µg/mL
MIC Enterococcus faecalis (GC 3059) (Enterococcus sp.; [10]): >64 µg/mL
MIC Enterococcus faecalis (GC 4552) (Enterococcus sp.; [11]): >64 µg/mL
MIC Enterococcus faecalis (GC 4553) (Enterococcus sp.; [12]): >64 µg/mL
MIC Enterococcus faecalis (GC 4554) (Enterococcus sp.; [13]): >64 µg/mL
MIC Enterococcus faecalis (GC 6189) (Enterococcus sp.; [14]): >64 µg/mL
MIC Enterococcus faecium (GC 2243) (Enterococcus sp.; Enterococcus faecium (GC 2243)): >64 µg/mL
MIC Enterococcus faecium (GC 4556) (Enterococcus sp.; Enterococcus faecium (GC 4556)): >64 µg/mL
MIC Enterococcus faecium (GC 4557) (Enterococcus sp.; Enterococcus faecium (GC 4557)): 64 µg/mL (≈ 44.9 µM)
MIC Enterococcus avium (GC 4558) (Enterococcus sp.; [6]): 64 µg/mL (≈ 44.9 µM)
MIC Enterococcus faecalis (ATCC 29212) (Enterococcus sp.; [6]): >64 µg/mL
MIC Enterococcus faecalis (GC 2242) (Enterococcus sp.; [6]): >64 µg/mL
MIC Enterococcus faecalis (GC 2691) (Enterococcus sp.; [6]): >64 µg/mL
MIC Enterococcus faecalis (GC 3059) (Enterococcus sp.; [6]): >64 µg/mL
MIC Enterococcus faecalis (GC 4552) (Enterococcus sp.; [6]): >64 µg/mL
MIC Enterococcus faecalis (GC 4553) (Enterococcus sp.; [6]): >64 µg/mL
MIC Enterococcus faecalis (GC 4554) (Enterococcus sp.; [6]): >64 µg/mL
MIC Enterococcus faecalis (GC 6189) (Enterococcus sp.; [6]): >64 µg/mL
MIC Enterococcus faecium (GC 2243) (Enterococcus sp.; [6]): >64 µg/mL
MIC Enterococcus faecium (GC 4556) (Enterococcus sp.; [6]): >64 µg/mL
MIC Enterococcus faecium (GC 4557) (Enterococcus sp.; [6]): 64 µg/mL (≈ 44.9 µM)
MIC Escherichia coli (ATCC 25922) (Escherichia coli): >64 µg/mL
MIC Escherichia coli (GC 4559) (Escherichia coli): >64 µg/mL
MIC Escherichia coli (GC 4560) (Escherichia coli): 64 µg/mL (≈ 44.9 µM)
SMILES: N=C1NCC(C(O)C2NC(=O)C(CC3CCC(OC4OC(CO)C(OC5OC6COC7(OC6C(O)C5O)C5CC6CC(C5)CC7C6)C(O)C4O)CC3)NC(=O)C(CC3CCCCC3)NC(=O)CNC(=O)C(CO)NC(=O)C(C(O)C3CNC(=N)N3C3OC(CO)C(O)C(O)C3O)NC2=O)N1 (stereo not drawn) [Example 222]
MIC Staphylococcus haemolyticus (GC 4546) (Staphylococcus sp.): >64 µg/mL

MIC Staphylococcus aureus (ATCC 29213) (Staphylococcus sp.): >64 µg/mL
MIC Staphylococcus aureus (GC 1131) (Staphylococcus sp.): >64 µg/mL
MIC Staphylococcus aureus (GC 3051) (Staphylococcus sp.): 64 µg/mL (≈ 44.9 µM)
MIC Staphylococcus aureus (GC 3053) (Staphylococcus sp.): >64 µg/mL
MIC Staphylococcus aureus (GC 4541) (Staphylococcus sp.): 64 µg/mL (≈ 44.9 µM)
MIC Staphylococcus aureus (GC 4542) (Staphylococcus sp.): 64 µg/mL (≈ 44.9 µM)
MIC Staphylococcus aureus-SMITH (GC 4543) (Staphylococcus sp.): 64 µg/mL (≈ 44.9 µM)
MIC Staphylococcus aureus (GC 4544) (Staphylococcus sp.): 64 µg/mL (≈ 44.9 µM)
MIC Staphylococcus aureus (GC 4545) (Staphylococcus sp.): 64 µg/mL (≈ 44.9 µM)
MIC Coagulase Negative Staphylococcus (GC 4547) (Staphylococcus sp.): 64 µg/mL (≈ 44.9 µM)
MIC Coagulase Negative Staphylococcus (GC 4548) (Staphylococcus sp.): 64 µg/mL (≈ 44.9 µM)
MIC Coagulase Negative Staphylococcus (GC 4549) (Staphylococcus sp.): 64 µg/mL (≈ 44.9 µM)
MIC Coagulase Negative Staphylococcus (GC 4551) (Staphylococcus sp.): 64 µg/mL (≈ 44.9 µM)
MIC Streptococcus agalactiae (GC 4564) (Streptococcus sp.; [1]): >64 µg/mL
MIC Streptococcus pneumoniae (ATCC 6301) (Streptococcus sp.; [2]): 64 µg/mL (≈ 44.9 µM)
MIC Streptococcus pneumoniae (GC 1894) (Streptococcus sp.; [3]): 32 µg/mL (≈ 22.4 µM)
MIC Streptococcus pneumoniae (GC 4565) (Streptococcus sp.; [4]): >64 µg/mL
MIC Streptococcus pyogenes (GC 4563) (Streptococcus sp.; [5]): 64 µg/mL (≈ 44.9 µM)
MIC Streptococcus agalactiae (GC 4564) (Streptococcus sp.; [6]): >64 µg/mL
MIC Streptococcus pneumoniae (ATCC 6301) (Streptococcus sp.; [6]): 64 µg/mL (≈ 44.9 µM)
MIC Streptococcus pneumoniae (GC 1894) (Streptococcus sp.; [6]): 32 µg/mL (≈ 22.4 µM)
MIC Streptococcus pneumoniae (GC 4565) (Streptococcus sp.; [6]): >64 µg/mL
MIC Streptococcus pyogenes (GC 4563) (Streptococcus sp.; [6]): 64 µg/mL (≈ 44.9 µM)
MIC Enterococcus avium (GC 4558) (Enterococcus sp.; Enterococcus avium (GC 4558)): 64 µg/mL (≈ 44.9 µM)
MIC Enterococcus faecalis (ATCC 29212) (Enterococcus sp.; [7]): >64 µg/mL
MIC Enterococcus faecalis (GC 2242) (Enterococcus sp.; [8]): >64 µg/mL
MIC Enterococcus faecalis (GC 2691) (Enterococcus sp.; [9]): >64 µg/mL
MIC Enterococcus faecalis (GC 3059) (Enterococcus sp.; [10]): >64 µg/mL
MIC Enterococcus faecalis (GC 4552) (Enterococcus sp.; [11]): >64 µg/mL
MIC Enterococcus faecalis (GC 4553) (Enterococcus sp.; [12]): 64 µg/mL (≈ 44.9 µM)
MIC Enterococcus faecalis (GC 4554) (Enterococcus sp.; [13]): >64 µg/mL
MIC Enterococcus faecalis (GC 6189) (Enterococcus sp.; [14]): >64 µg/mL
MIC Enterococcus faecium (GC 2243) (Enterococcus sp.; Enterococcus faecium (GC 2243)): >64 µg/mL
MIC Enterococcus faecium (GC 4556) (Enterococcus sp.; Enterococcus faecium (GC 4556)): >64 µg/mL
MIC Enterococcus faecium (GC 4557) (Enterococcus sp.; Enterococcus faecium (GC 4557)): 64 µg/mL (≈ 44.9 µM)
MIC Enterococcus avium (GC 4558) (Enterococcus sp.; [6]): 64 µg/mL (≈ 44.9 µM)
MIC Enterococcus faecalis (ATCC 29212) (Enterococcus sp.; [6]): >64 µg/mL
MIC Enterococcus faecalis (GC 2242) (Enterococcus sp.; [6]): >64 µg/mL
MIC Enterococcus faecalis (GC 2691) (Enterococcus sp.; [6]): >64 µg/mL
MIC Enterococcus faecalis (GC 3059) (Enterococcus sp.; [6]): >64 µg/mL
MIC Enterococcus faecalis (GC 4552) (Enterococcus sp.; [6]): >64 µg/mL
MIC Enterococcus faecalis (GC 4553) (Enterococcus sp.; [6]): 64 µg/mL (≈ 44.9 µM)
MIC Enterococcus faecalis (GC 4554) (Enterococcus sp.; [6]): >64 µg/mL
MIC Enterococcus faecalis (GC 6189) (Enterococcus sp.; [6]): >64 µg/mL
MIC Enterococcus faecium (GC 2243) (Enterococcus sp.; [6]): >64 µg/mL
MIC Enterococcus faecium (GC 4556) (Enterococcus sp.; [6]): >64 µg/mL
MIC Enterococcus faecium (GC 4557) (Enterococcus sp.; [6]): 64 µg/mL (≈ 44.9 µM)
MIC Escherichia coli (ATCC 25922) (Escherichia coli): >64 µg/mL
MIC Escherichia coli (GC 4559) (Escherichia coli): >64 µg/mL
MIC Escherichia coli (GC 4560) (Escherichia coli): 32 µg/mL (≈ 22.4 µM)
SMILES: N=C1NCC(C(O)C2NC(=O)C(CC3CCC(OC4OC(CO)C(OC5OC6COC7(OC6C(O)C5O)C5CC6CC(C5)CC7C6)C(O)C4O)CC3)NC(=O)C(CC3CCCCC3)NC(=O)CNC(=O)C(CO)NC(=O)C(C(O)C3CNC(=N)N3C3OC(CO)C(O)C(O)C3O)NC2=O)N1 (stereo not drawn) [Example 223]
MIC Staphylococcus haemolyticus (GC 4546) (Staphylococcus sp.): 64 µg/mL (≈ 44.9 µM)
